Laboratory results: patent US20230202989A1, “COMPOUNDS” (JANSSEN PHARMACEUTICA NV, priority 2020, published 2023)
Like-named read-outs stand apart in the source and are kept apart here.

What was measured:
TNF = test: PBMC assay: TNF cytokine levels after LPS stimulation (MSD); assay type: cell-based; conditions: human PBMCs, 100 ng/ml LPS for 6 hrs
In short: (§1)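 Cryopreserved human PBMCs (7.5×10^4/well) in RPMI/10% FBS were preincubated with serially diluted compound for 30 min at 37 °C, then stimulated with 100 ng/ml LPS for 6 h. Supernatant IL-1β and TNF measured by MSD. IC50 derived for IL-1β, EC50 for TNF.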

IL-1β = test: PBMC assay: inhibition of IL-1β release after LPS stimulation (MSD); assay type: cell-based; conditions: human PBMCs, 100 ng/ml LPS for 6 hrs, MSD, 96 well plates, read-out: IL1β IC50
In short: as §1

EC50 (TNF; Homo sapiens, PBMC, 6 h) [nM]	IC50 (IL-1β; Homo sapiens, PBMC, 6 h) [nM]	EC50 (TNF) [nM]	IC50 (IL-1β) [nM]	Compound
> 20000	1940	–	–	CC(C)c1nn(CC(=O)Nc2ccc3cnn(C)c3c2)c(=O)c2ccc(C(F)(F)F)cc12 [Final Cpd X114]
–	–	> 20000	2020	CC(C)c1nn(CC(=O)N[C@@H]2CC[C@@H]2O)c(=O)c2ccc(C(F)(F)F)cc12 [Final Cpd X115]
> 20000	2090	–	–	CO[C@H]1C[C@@H](NC(=O)Cn2nc(C(C)C)c3cc(C(F)(F)F)ccc3c2=O)C1 [Final Cpd X116]
> 20000	2110	–	–	CCN1C[C@H](NC(=O)Cn2nc(C(C)C)c3cc(C(F)(F)F)ccc3c2=O)CC(F)(F)C1 [Final Cpd X117]
> 20000	2130	–	–	CC(C)c1nn(CC(=O)Nc2ccc3nc(C(F)F)cn3n2)c(=O)c2ccc(C(F)(F)F)cc12 [Final Cpd X118]
> 20000	2130	–	–	CC(C)c1nn(CC(=O)N[C@H]2C[C@@](O)(C(F)(F)F)C2)c(=O)c2ccc(C(F)(F)F)cc12 [Final Cpd X119]
> 20000	2570	–	–	CC(C)c1nn(CC(=O)Nc2cc(Cl)c(=O)n(C(F)F)c2)c(=O)c2ccc(C(F)(F)F)cc12 [Final Cpd X120]
> 20000	2650	–	–	CC(C)c1nn(CC(=O)NC2(C)CC(O)C2)c(=O)c2ccc(C(F)(F)F)cc12 (stereo not shown) [Final Cpd X121]
> 20000	2680	–	–	CC(C)c1nn(CC(=O)N[C@H]2C[C@@H](O)CN(C)C2)c(=O)c2ccc(C(F)(F)F)cc12 [Final Cpd X122]
> 20000	2700	–	–	CC(C)c1nn(CC(=O)Nc2ccc3cn(C)nc3c2)c(=O)c2ccc(C(F)(F)F)cc12 [Final Cpd X123]
> 20000	2880	–	–	CC1(c2nn(CC(=O)Nc3ccc4nncn4c3)c(=O)c3ccc(C(F)(F)F)cc23)CC1 [Final Cpd X125]
> 20000	2940	–	–	CC(C)c1nn(CC(=O)NC2(C)CC(F)(F)C2)c(=O)c2ccc(C(F)(F)F)cc12 [Final Cpd X126]
> 20000	2940	–	–	CC(C)c1nn(CC(=O)Nc2ccn3ccnc3n2)c(=O)c2ccc(C(F)(F)F)cc12 [Final Cpd X127]
> 20000	2950	–	–	CC(C)c1nn(CC(=O)NC2CCC(C)(C)OC2)c(=O)c2ccc(C(F)(F)F)cc12 (stereo not shown) [Final Cpd X128]
> 20000	3090	–	–	CO[C@H]1CC[C@@H](NC(=O)Cn2nc(C(C)C)c3cc(C(F)(F)F)ccc3c2=O)CC1 [Final Cpd X131]
> 20000	3260	–	–	CC(C)c1nn(CC(=O)Nc2cc(Br)c3ncnn3c2)c(=O)c2ccc(C(F)(F)F)cc12 [Final Cpd X132]
> 20000	3410	–	–	C[C@]1(O)C[C@@H](NC(=O)Cn2nc(C3(F)CC3)c3cc(C(F)(F)F)ccc3c2=O)C1 [Final Cpd X134]
> 20000	3440	–	–	COC(c1nn(CC(=O)Nc2ccc3nncn3c2)c(=O)c2ccc(C(F)(F)F)cc12)C(F)(F)F (stereo not shown) [Final Cpd X135]
> 20000	3770	–	–	CC(C)(F)c1nn(CC(=O)Nc2ccc3nncn3c2)c(=O)c2ccc(C(F)(F)F)cc12 [Final Cpd X136]
> 20000	3860	–	–	CC(C)c1nn(CC(=O)Nc2ccc3nn(C)cc3c2)c(=O)c2ccc(C(F)(F)F)cc12 [Final Cpd X137]
> 20000	4710	–	–	CC(C)c1nn(CC(=O)Nc2ccc3c(c2)ncn3C)c(=O)c2ccc(C(F)(F)F)cc12 [Final Cpd X141]
> 20000	4740	–	–	O=C(Cn1nc(C2(F)CC2)c2cc(C(F)(F)F)ccc2c1=O)Nc1ccc2nncn2c1 [Final Cpd X142]
> 20000	4930	–	–	CCN1CCC(NC(=O)Cn2nc(C(C)C)c3cc(C(F)(F)F)ccc3c2=O)CC1 [Final Cpd X143]
> 20000	4940	–	–	CC(C)Cc1nn(CC(=O)Nc2ccc3nncn3c2)c(=O)c2ccc(C(F)(F)F)cc12 [Final Cpd X144]
> 20000	4990	–	–	CC(C)(F)c1nn(CC(=O)N[C@H]2C[C@@](C)(O)C2)c(=O)c2ccc(C(F)(F)F)cc12 [Final Cpd X145]
> 20000	5720	–	–	CC(C)c1nn(CC(=O)Nc2ccc3cnn(C(F)F)c3c2)c(=O)c2ccc(C(F)(F)F)cc12 [Final Cpd X146]
> 20000	7450	–	–	CC(C)c1nn(CC(=O)Nc2cnn(C)c(=O)c2)c(=O)c2ccc(C(F)(F)F)cc12 [Final Cpd X151]

The next lines start with the compound.

Compound	EC50 (TNF; Homo sapiens, PBMC, 6 h) [nM]	IC50 (IL-1β; Homo sapiens, PBMC, 6 h) [nM]	EC50 (TNF) [nM]	IC50 (IL-1β) [nM]
CC(C)c1nn(CC(=O)Nc2ncc3c(ncn3C)n2)c(=O)c2ccc(C(F)(F)F)cc12 [Final Cpd X80]	> 20000	866	–	–
CC(C)c1nn(CC(=O)N[C@H]2CN(CC[C@H](C)O)CC[C@H]2O)c(=O)c2ccc(C(F)(F)F)cc12 [Final Cpd X81]	> 20000	879	–	–
CC(C)c1nn(CC(=O)Nc2ccc3nncn3n2)c(=O)c2c(O)cc(C(F)(F)F)cc12 [Final Cpd X82]	12900	888	–	–
CC(C)c1nn(CC(=O)N[C@H]2CN(C3CC(F)(F)C3)CC[C@H]2O)c(=O)c2ccc(C(F)(F)F)cc12 [Final Cpd X83]	12900	910	–	–
C[C@]1(O)C[C@@H](NC(=O)Cn2nc(C(O)C(F)(F)F)c3cc(C(F)(F)F)ccc3c2=O)C1 (stereo partly shown) [Final Cpd X84]	> 20000	911	–	–
CC(c1nn(CC(=O)N[C@H]2C[C@@](C)(O)C2)c(=O)c2ccc(C(F)(F)F)cc12)C(F)(F)F (stereo partly shown) [Final Cpd X85]	> 20000	915	–	–
CC(C)c1nn(CC(=O)N[C@@H]2CCC[C@H]2O)c(=O)c2ccc(C(F)(F)F)cc12 [Final Cpd X86]	> 20000	915	–	–
CC(C)c1nn(CC(=O)Nc2ccc3nnc(C(F)(F)F)n3n2)c(=O)c2ccc(C(F)(F)F)cc12 [Final Cpd X87]	> 20000	916	–	–
CC(C)c1nn(CC(=O)Nc2ccc3c(C#N)ncn3c2)c(=O)c2ccc(C(F)(F)F)cc12 [Final Cpd X88]	> 20000	924	–	–
CC(C)c1nn(CC(=O)NC2CCc3nncn3C2)c(=O)c2ccc(C(F)(F)F)cc12 (stereo not shown) [Final Cpd X89]	> 20000	924	–	–
CC(C)c1nn(CC(=O)N[C@H]2CC[C@@H]2O)c(=O)c2ccc(C(F)(F)F)cc12 [Final Cpd X91]	–	–	> 20000	954
Cc1cc(NC(=O)Cn2nc(C(C)C)c3cc(C(F)(F)F)ccc3c2=O)cn2ccnc12 [Final Cpd X92]	> 20000	970	–	–
Cn1nc(NC(=O)Cn2nc(C3CC3)c3cc(C(F)(F)F)ccc3c2=O)ccc1=O [Final Cpd X93]	> 20000	1010	–	–
CC(C)c1nn(CC(=O)N[C@H]2C[C@H](O)C2)c(=O)c2ccc(C(F)(F)F)cc12 [Final Cpd X94]	> 20000	1070	–	–
CC(C)c1nn(CC(=O)N[C@@H]2CC[C@@H]2O)c(=O)c2ccc(C(F)(F)F)cc12 [Final Cpd X95]	> 20000	1100	–	–
CC(C)c1nn(CC(=O)Nc2nc(Cl)c3ncn(C)c3n2)c(=O)c2ccc(C(F)(F)F)cc12 [Final Cpd X96]	> 20000	1110	–	–

Compound	EC50 (TNF; Homo sapiens, PBMC, 6 h) [nM]	IC50 (IL-1β; Homo sapiens, PBMC, 6 h) [nM]	EC50 (TNF) [nM]	IC50 (IL-1β) [nM]
CC(C)c1nn(CC(=O)Nc2ccc3nc(C#N)cn3c2)c(=O)c2ccc(C(F)(F)F)cc12 [Final Cpd X97]	> 20000	1120	–	–
CC(C)c1nn(CC(=O)N[C@@H]2CCCC[C@H]2O)c(=O)c2ccc(C(F)(F)F)cc12 [Final Cpd X98]	> 20000	1150	–	–
CC(C)c1nn(CC(=O)N[C@H]2C[C@H](C(C)(C)O)C2)c(=O)c2ccc(C(F)(F)F)cc12 [Final Cpd X99]	> 20000	1160	–	–
CC(C)c1nn(CC(=O)N[C@@H]2CC[C@](C)(O)C2)c(=O)c2ccc(C(F)(F)F)cc12 [Final Cpd X100]	> 20000	1260	–	–
CC(C)c1nn(CC(=O)Nc2ccc3cnnn3c2)c(=O)c2ccc(C(F)(F)F)cc12 [Final Cpd X101]	> 20000	1280	–	–
COC(C)c1nn(CC(=O)Nc2ccc3nncn3c2)c(=O)c2ccc(C(F)(F)F)cc12 (stereo not shown) [Final Cpd X102]	> 20000	1300	–	–
CC(O)c1nn(CC(=O)Nc2ccncn2)c(=O)c2ccc(C(F)(F)F)cc12 (stereo not shown) [Final Cpd X103]	> 20000	1320	–	–
CC(C)c1nn(CC(=O)N[C@H]2CN(C3COC3)CC[C@H]2O)c(=O)c2ccc(C(F)(F)F)cc12 [Final Cpd X104]	> 20000	1410	–	–
CO[C@H]1C[C@H](NC(=O)Cn2nc(C(C)C)c3cc(C(F)(F)F)ccc3c2=O)C1 [Final Cpd X105]	> 20000	1520	–	–
CC(C)c1nn(CC(=O)N[C@@H]2CCc3nncn3C2)c(=O)c2ccc(C(F)(F)F)cc12 [Final Cpd X106]	> 20000	1610	–	–
COC(C)c1nn(CC(=O)N[C@H]2C[C@@](C)(O)C2)c(=O)c2ccc(C(F)(F)F)cc12 (stereo partly shown) [Final Cpd X107]	> 20000	1610	–	–
CC(C)c1nn(CC(=O)N[C@H]2C[C@@H](C(C)(C)O)C2)c(=O)c2ccc(C(F)(F)F)cc12 [Final Cpd X108]	> 20000	1630	–	–
CC(C)c1nn(CC(=O)N[C@@H]2CC[C@@](C)(O)C2)c(=O)c2ccc(C(F)(F)F)cc12 [Final Cpd X110]	> 20000	1640	–	–
COC(C)c1nn(CC(=O)Nc2ccncn2)c(=O)c2ccc(C(F)(F)F)cc12 (stereo not shown) [Final Cpd X111]	7930	1700	–	–
CC(C)c1nn(CC(=O)Nc2ccn(C)c(=O)n2)c(=O)c2ccc(C(F)(F)F)cc12 [Final Cpd X112]	> 20000	1730	–	–
CC(C)c1nn(CC(=O)Nc2ccc3c(c2)nnn3C)c(=O)c2ccc(C(F)(F)F)cc12 [Final Cpd X113]	> 20000	1860	–	–
